In patent US20260344673A1, “A SOLID FORM FOR PREPARATION OF AN AQUEOUS DISPERSION, AQUEOUS DISPERSION, STABLE CONCENTRATE, COMBINED AQUEOUS DISPERSION, AND USES THEREOF” (priority 2022, published 2026):

Tests used:
Trichoderma harzianum = experiment: Kirby-Bauer disk diffusion test, Trichoderma harzianum
Protocol: (§1) The performance of the embodiments of the present inventions and their mixtures enriched with millbase (MFA) was analysed against the appropriate reference substance, i.e., a commercial product containing the analogue active substance with the same concentration. The prepared solutions were applied on the paper antibiograms. Then the soaked antibiograms were placed on the Petri Dishes (dish diameter 90 mm) with the growth medium for fungal pathogens V8. Composition of V8: agar, calcium carbonate and multi-vegetable juice. 3 fragments of mycelium of the tested pathogen (5×5 mm) were transplanted onto the prepared medium. As a result, the zones where the fungal growth was inhibited have been measured and compared respectively with the control sample and the analogue active substance sample.
(§2) Assessment was carried out by determining the infested area of the Petri dish in %. These percentages have been converted into efficacy (W) according to Abbot's formula as follows: W=(1−α/β)×100 • where: • α—corresponds to the mycelium/bacterial growth of each tested sample [%], • β—corresponds to the mycelium/bacterial growth in control sample [%].
(§3) In order to estimate if the combined action effect with the commercial fungicide, the W parameter of the mixture was compared with W parameter for particular commercial fungicide solo. Where W=0 the efficacy of the control sample (whole Petri dish covered with mycelium), and W=100 is when no mycelium growth observed.

Rhizoctonia solani = experiment: Kirby-Bauer disk diffusion test, Rhizoctonia solani
Protocol: as §1, §2, §3

Fusarium equiseti = experiment: Kirby-Bauer disk diffusion test, Fusarium equiseti
Protocol: as §1, §2, §3

[1] = tested on: Colletotrichum gloeosporioides; experiment: Kirby-Bauer disk diffusion test, Colletotrichum gloeosporioides
Protocol: (§4) The microbiological tests were carried out by applying Kirby-Bauer Disk Diffusion Susceptibility Test Protocol for antimicrobial activity. It is based on the formation of a concentration gradient in the growth medium during the diffusion of the active substance from the antibiogram disc (Kirby-Bauer method).
as §1, §2, §3

[2] = tested on: Alternaria infectoria/alternata; experiment: Kirby-Bauer disk diffusion test, Alternaria infectoria/alternata
Protocol: as §1, §2, §3

Monilinia fructigena = experiment: Kirby-Bauer disk diffusion test, Monilinia fructigena
Protocol: as §1, §2, §3

Phytophthora cactorum = experiment: Kirby-Bauer disk diffusion test, Phytophthora cactorum; parameters: % mycelium growth relative to the control: concentration or dose not given beside the values
Protocol: as §1, §2, §3

Botrytis cinerea = experiment: Kirby-Bauer disk diffusion test, Botrytis cinerea
Protocol: as §1, §2, §3

Sclerotinia sclerotiorum = experiment: Kirby-Bauer disk diffusion test, Sclerotinia sclerotiorum
Protocol: as §1, §2, §3

Venturia inaegualis = experiment: Kirby-Bauer disk diffusion test, Venturia inaequalis; conditions: dodine 680 g/L
Protocol: as §4, §1, §2, §3

Fusarium oxysporum = experiment: Kirby-Bauer disk diffusion test, Fusarium oxysporum; conditions: thiabendazole 500 g/L
Protocol: as §4, §1, §2, §3

Phytophthora megasperma = experiment: Kirby-Bauer disk diffusion test, Phytophthora megasperma; conditions: thiabendazole 500 g/L
Protocol: as §4, §1, §2, §3

COc1cc(C)c(C(=O)c2c(OC)ccc(Br)c2C)c(OC)c1OC [Metrafenone (150)]
% mycelium growth relative to the control (Trichoderma harzianum; V8 medium): 80%
mycelium growth (Trichoderma harzianum; V8 medium, control 8.6 cm): 6.9 cm
EFFICACY W (Abbot) (Trichoderma harzianum; control W=0, no growth W=100): 20

O=[N+]([O-])c1cc(C(F)(F)F)c(Cl)c([N+](=O)[O-])c1Nc1ncc(C(F)(F)F)cc1Cl [fluazinam (200)]
% mycelium growth relative to the control (Rhizoctonia solani; V8 medium): 100%
mycelium growth (Rhizoctonia solani; V8 medium, control 8.6 cm): 8.6 cm
EFFICACY W (Abbot) (Rhizoctonia solani; control W=0, no growth W=100): 0
% mycelium growth relative to the control (Fusarium equiseti; V8 medium): 80%
mycelium growth (Fusarium equiseti; V8 medium, control 8.6 cm): 6.9 cm
EFFICACY W (Abbot) (Fusarium equiseti; control W=0, no growth W=100): 20
% mycelium growth relative to the control ([1]; Colletotrichum gloeosporioides, V8 medium): 0%
mycelium growth ([1]; Colletotrichum gloeosporioides, V8 medium, control 5.4 cm): 0 cm
EFFICACY W (Abbot) ([1]; Colletotrichum gloeosporioides, control W=0, no growth W=100): 100
% mycelium growth relative to the control ([2]; V8 medium): 40%
mycelium growth ([2]; V8 medium, control 8.6 cm): 3.4 cm
EFFICACY W (Abbot) ([2]; control W=0, no growth W=100): 60
% mycelium growth relative to the control (Monilinia fructigena; V8 medium): 0%
mycelium growth (Monilinia fructigena; V8 medium, control 5.4 cm): 0 cm
EFFICACY W (Abbot) (Monilinia fructigena; control W=0, no growth W=100): 100
% mycelium growth relative to the control (Phytophthora cactorum; V8 medium): 33%
mycelium growth (Phytophthora cactorum; V8 medium, control 5.4 cm): 1.8 cm
EFFICACY W (Abbot) (Phytophthora cactorum; control W=0, no growth W=100): 67
% mycelium growth relative to the control (Botrytis cinerea; V8 medium): 100%
mycelium growth (Botrytis cinerea; V8 medium, control 8.6 cm): 8.6 cm
EFFICACY W (Abbot) (Botrytis cinerea; control W=0, no growth W=100): 0
% mycelium growth relative to the control (Sclerotinia sclerotiorum; V8 medium): 100%
mycelium growth (Sclerotinia sclerotiorum; V8 medium, control 8.6 cm): 8.6 cm
EFFICACY W (Abbot) (Sclerotinia sclerotiorum; control W=0, no growth W=100): 0

CCCCCCCCCCCCNC(=N)N [Dodine, dodine, reference compound]
activity at 680000 µg/mL (Venturia inaegualis; Venturia, read-out: % mycelium growth relative to the control): 55%
inhibition of growth at 680000 µg/mL (stock) (Venturia inaegualis; Venturia, read-out: EFFICACY W (Abbot)): 45%
mycelium growth (Venturia inaegualis): 1.6 cm

c1ccc2[nH]c(-c3cscn3)nc2c1 [Thiabendazole, thiabendazole, reference compound]
activity at 500000 µg/mL (Fusarium oxysporum; Fusarium oxysporum, read-out: % mycelium growth relative to the control): 84%
inhibition of growth at 500000 µg/mL (Fusarium oxysporum; Fusarium oxysporum, read-out: EFFICACY W (Abbot)): 16%
mycelium growth (Fusarium oxysporum): 7.2 cm
activity at 500000 µg/mL ([1]; Colletotrichum gloeosporioides, thiabendazole 500 g/L, read-out: % mycelium growth relative to the control): 0%
inhibition of growth at 500000 µg/mL ([1]; Colletotrichum gloeosporioides, thiabendazole 500 g/L, read-out: EFFICACY W (Abbot)): 100%
mycelium growth ([1]; thiabendazole 500 g/L): 0 cm
activity at 500000 µg/mL (Phytophthora megasperma; Phytophthora megasperma, read-out: % mycelium growth relative to the control): 48%
inhibition of growth at 500000 µg/mL (Phytophthora megasperma; Phytophthora megasperma, read-out: EFFICACY W (Abbot)): 52%
mycelium growth (Phytophthora megasperma): 2.6 cm
